Measurements from patent US5198419A, “Formulated medicines for enhancing the efficacy of beta-lactam antibiotics in prophylaxis and treatment against infectious disease due to pathogenic bacteria” (Immuno Japan Inc., priority 1989, dated 1993).

Columns and labels:
[1] = system: Proteus mirabilis GN79; experiment: Example 7: experimental infection in mice, ampicillin with or without native lactoferrin; type: in vivo, strain ddY; settings: GN79, po, 168 h, 1.3 × 10^6 CFU/mouse
Method: (§1) For ED50 values, a range of amounts of antibiotics is given in the examples (e.g., penicillin G: 0.4, 0.2, 0.1, 0.05 mg/mouse). To calculate the ED50, groups of mice in the monotherapy groups and groups of mice in the combined therapy groups received the indicated amount of antibiotic (e.g., one group received 0.4 mg/mouse of penicillin G, one group received 0.2 mg/mouse of penicillin G, one group received 0.1 mg/mouse of penicillin G, one group received 0.05 mg/mouse of penicillin G).
Male mice, strain ddY, five weeks old, were randomly allocated into groups (n=10), and were intraperitoneally injected with Proteus mirabilis GN79 (1.3×10^6 CFU/mouse) or with Escherichia coli #11 (1.7×10^6 CFU/mouse) or with Klebsiella pneumoniae 3K25 (1.5×10^6 CFU/mouse). The doses are 1,000 times greater than the minimum lethal dose. Immediately after the injection, the first eight groups were orally given ampicillin, the second eight groups were orally given cephalexin, and the third eight groups were orally given cefaclor, respectively, each simultaneously with or without native lactoferrin (1 mg/mouse) in 0.2 ml of distilled water (see Table 7). All the mice were fed ad libitum and observed for one week under the same conditions as described in Example 1.

[2] = system: Escherichia coli #11; experiment: Example 6: experimental infection in mice, ampicillin with or without apolactoferrin; type: in vivo, strain ddY; settings: p.o. immediately after 1.2×10^6 CFU/mouse
Method: as §1
Male mice, strain ddY, five weeks old, weighing an average of 21.5 g, were randomly allocated into groups (n=10), and they were intraperitoneally injected with Escherichia coli #11, 1.2×10^6 CFU/mouse. Immediately after the injection, the untreated control group was orally given 0.2 ml of distilled water, the second through the fifth groups were treated once orally by ampicillin (8, 4, 2 and 1 mg/mouse), and the sixth through the ninth groups with ampicillin (4, 2, 1 and 0.5 mg/mouse) plus apolactoferrin (1 mg/mouse) in 0.2 ml of distilled water. The mice were fed ad libitum and observed for one week under the same conditions as described in Example 1. […] It is apparent from the results that lactoferrin not only potentiates the efficacy of the cephalosporin class but also the penicillin class of antibiotics.

[3] = system: Klebsiella pneumoniae strain 3K25; experiment: Example 4: experimental infection in mice, cefotetan with or without native lactoferrin; type: in vivo; settings: p.o. 1 h after 1×10^6 CFU/mouse
Method: as §1
The experimental design is similar to that of Example 3. The mice groups (n=6) were intraperitoneally injected with Klebsiella pneumoniae strain 3K25, 1×10^6 CFU/mouse, and one hour after the injection, orally active cephalosporin, cefotetan (2.0, 1.0, 0.5 and 0.25 mg/mouse) was orally administered with or without native lactoferrin (0.4 mg/mouse) in 0.2 ml physiological saline.

Compound	ED50 ([1]; ampicillin alone) [mg/kg]	ED50 ([1]; ampicillin with lactoferrin (1 mg/mouse)) [mg/kg]	ED50 ([2]; ampicillin combined therapy with apolactoferrin (1 mg/mouse)) [mg/mouse]	ED50 ([2]; ampicillin monotherapy) [mg/mouse]	ED50 ([3]; cefotetan combined therapy with native lactoferrin (0.4 mg/mouse)) [mg/mouse]	ED50 ([3]; cefotetan monotherapy) [mg/mouse]
CC1(C)S[C@@H]2[C@H](NC(=O)[C@H](N)c3ccccc3)C(=O)N2[C@H]1C(=O)O [ampicillin]	133	24.9	0.75	6.02	–	–
CO[C@@]1(NC(=O)C2SC(=C(C(N)=O)C(=O)O)S2)C(=O)N2C(C(=O)O)=C(CSc3nnnn3C)CS[C@@H]21 (stereo partly drawn) [cefotetan]	–	–	–	–	0.16	0.50
